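Interpolation was linear, between the two tested concentrations surrounding the appropriate level; five concentrations were tested over 48 hours in 96-well plates. Definition used: TGI = concentration required for complete inhibition of growth.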
Key:
Experiment in all cases: NCI tumour cell line growth inhibition, 48 h
DLD-1 colon = system: DLD-1 colon
DMS 114 small cell lung = system: DMS 114 small cell lung
DMS 273 small cell lung = system: DMS 273 small cell lung
KM20L2 colon = system: KM20L2 colon
LXFL 529 NSCLC = system: LXFL 529 NSCLC
M19-MEL melanoma = system: M19-MEL melanoma
RXF-631 renal = system: RXF-631 renal
SK-MEL-28 melanoma = system: SK-MEL-28 melanoma
SNB-78 CNS = system: SNB-78 CNS
XF 498 CNS = system: XF 498 CNS
HOP-18 NSCLC = system: HOP-18 NSCLC
MDA-N = system: MDA-N

Compound	TGI (DLD-1 colon) [µM]	TGI (DMS 114 small cell lung) [µM]	TGI (DMS 273 small cell lung) [µM]	TGI (KM20L2 colon) [µM]	TGI (LXFL 529 NSCLC) [µM]	TGI (M19-MEL melanoma) [µM]	TGI (RXF-631 renal) [µM]	TGI (SK-MEL-28 melanoma) [µM]	TGI (SNB-78 CNS) [µM]	TGI (XF 498 CNS) [µM]	TGI (HOP-18 NSCLC) [µM]	TGI (MDA-N) [µM]
COc1ccc(C2CC(=O)c3c(O)cc(O)cc3O2)cc1O (centres undefined)	> 100	> 100	> 100	> 100	> 100	> 100	> 100	> 100	> 100	> 100		
O=C1[C@@H]2C(c3ccccc3Br)=NO[C@@H]2C(=O)N1c1ccc(Cc2ccc(N3C(=O)[C@H]4C(c5ccccc5Br)=NO[C@H]4C3=O)cc2)cc1	> 100	> 100	> 100	> 100	> 100	> 100	> 100	> 100	> 100	> 100	> 100	
Cc1ccccc1NC(=O)C(=O)C(C#N)c1ccc(Cl)cc1 (centres undefined)	> 100	> 100	> 100	> 100	> 100		> 100	> 100	> 100	> 100	> 100	
COc1ccc(C(=O)c2cc(OC)c(OC)c(OC)c2)cc1	> 100	> 100	> 100		> 100	> 100	> 100	> 95.8		> 27.7	> 100	0.0452
COc1c(C=O)c2c(c(OC)c1OC)-c1ccc(OC)c(=O)cc1[C@@H](NC(C)=O)CC2	> 100	0.0364	> 100	0.218	> 100	> 100	18.2	> 100	> 67.6	37	> 100	
Cc1ccc(S(=O)(=O)N[C@H](C(=O)O)c2ccccc2)cc1	> 100		> 100	> 100	> 100	> 100	> 100	> 100		> 100	> 100	
COc1cccc2c1C(=O)C=CC2=O	39	10.3	30.8	30.6	6.37	16.1		33.6	9.3	5.25	23.6	
CC1CC(C2=CC=CCS2)=Nc2ccccc2S1 (centres undefined)	> 100		> 100	> 100	> 100	> 100	> 100	> 100	> 100	> 100	> 100	
O=C(Nc1ccc(Cl)cc1Cl)C1C(=O)N(c2ccc(Cl)cc2Cl)C(=O)/C1=N\Nc1ccc([N+](=O)[O-])cc1[N+](=O)[O-] (centres undefined)	> 100	66.8	> 100	> 100	> 100	> 100	> 100	> 100	> 100		> 100	
CC(NS(=O)(=O)c1ccc([N+](=O)[O-])cc1)C(=O)O (centres undefined)	> 100		> 100	> 100	> 100		> 100	> 100		> 100	> 100	
COC(=O)C1=C(c2ccc(OC)c(OC)c2)OC(c2ccc(OC)c(OC)c2)C1 (centres undefined)	> 100	77.5	> 100	> 100	62.1	> 100		> 100	> 100	65.2	> 100	
COc1cc(/C=C/c2ccncc2)cc(OC)c1OC	> 100	> 100	> 100	> 100	> 100		> 100	> 100	> 100	91.3	> 100	
CC(C)(C)NNC(=O)/C(=C/c1ccc([N+](=O)[O-])cc1)NC(=O)c1ccccc1	> 100	35.9	80	> 100	> 100	> 100		> 100	> 100	> 100	> 100	
C[N+](C)(C)CC1CCCC/C1=N\OC(=O)c1ccccc1 (centres undefined)	> 100	> 100	> 100	> 100	> 100	> 100	> 100	> 100	> 100		> 100	
O=C(Nc1c(O)[nH]c(=S)[nH]c1=O)c1ccccc1F	> 100	> 100		> 100	> 100	> 100	> 100	> 100	> 100		> 100	
NC1=NC(=O)/C(=C/c2ccccc2[N+](=O)[O-])C(N)=N1	> 100	> 100	> 100	> 100	> 100	> 100	> 100	> 100	> 100	> 100	> 100	
CC1CC[C@]2(C(=O)O)CCC3(COC(=O)/C=C\c4ccc(O)cc4)C(=CCC4[C@@]5(C)CC[C@H](O)C(C)(C)C5CC[C@]43C)[C@@H]2[C@H]1C (some centres undefined)	30.8	> 100	50.3	33.6	> 100	50.8	77.9	35.5	> 100		69.8	

Source: PubChem BioAssay (NCI)
